Assay results taken from patent publication US11679168B2, “Caspase-3-triggered molecular self-assembling PET probes and uses thereof” (The Board of Trustees of the Leland Stanford Junior …, priority 2018, dated 2023).

Legend:
[1] = Blood half-life in healthy nude mice after intravenous injection; format: in vivo
Excerpt: FIG. 21 illustrates blood half-life in healthy nude mice after intravenous injection of [^18F]-C-SNAT4 (n=4).

H460 cells = assay: Radiotracer uptake in H460 cells; format: cell-based, human
Description: (§1) Temporal changes in cell-associated radioactivity in drug-treated cells or vehicle cells were measured with [18F]-C-SNAT4. Data are means±SD (n=3 per group). *, P<0.05; **, P<0.01; ***, P<0.005; *****, P<0.0001.
FIG. 22 illustrates that a mixture strategy enhances [^18F]-C-SNAT4 uptake in radiation (a single dose at 10 Gy) treated cells and vehicle human non-small cell lung cancer H460 cells. 40 μCi of mixture tracer [^18F]/[^19F]-C-SNAT4 (at ratio of 1:80 or 1:200) or 40 μCi [^18F]-C-SNAT4 were incubated in cells for 1 hour at 24 h post-IR treatment and radioactivity of [^18F] was measured using γ-counter. Data are means±SD (n=3 each group). *, P<0.05; **, P<0.01; ***, P<0.001.
(§2) Radiotracer uptake in cells: H460 and H1299 cells (2×10^5) were plated in 6-well cell culture plates over night before [^18F]-C-SNAT4 uptake analysis. […] After 24 h treatment, fresh, prewarmed RPMI Medium 1640 containing 1.48 MBq (40 μCi) [^18F]-C-SNAT4 was added to individual wells (1 ml/well; 13.3 pmol). At post 10, 30, 60 min, medium was removed, cells were lifted by trypsinization, and washed three-times with cold PBS. Radioactivity contained in cell pellets was measured using a gamma counter, with counts normalized to total protein concentration as determined by cell digestion using RIPA buffer followed by protein quantitation by the Bradford method. The final radiotracer [^18F]-C-SNAT4 uptake concentration was expressed as μM of % uptake/mg protein. Results were normalized to a vehicle control (PBS for [^18F]-C-SNAT4 experiments at different time-points) which was washed.

H1299 cells = assay: Radiotracer uptake in H1299 cells; format: cell-based, human
Description: as §1, §2

[2] = Stability of [18F]-C-SNAT4 in mouse serum (HPLC); format: in vitro ADME; conditions: 37° C., over 2 h incubation
Description: FIG. 1B illustrates the serum stability of [^18F]-C-SNAT4 in mouse serum. [^18F]-C-SNAT4 was incubated in serum at 37° C. and analyzed by HPLC.
At 24 h post treatment, mixture tracer of [^19F]-C-SNAT4 was injected with [^18F]-C-SNAT4 (mixture ratio at 1:200) through the tail vein for PET imaging (FIG. 24A-24C). For treated animal, tumor uptake of mixture tracer [^18F]/[^19F]-C-SNAT4 and [^18F]-C-SNAT4 were 2.9±0.3% ID/cc and 1.7±0.1% ID/cc, respectively at 85 min post injection. There was 1.7-fold increase of radioactivity in the mixture-treated mice. Overall, the uptake of [^18F]-C-SNAT4 was increased both in radiation and drug-treated tumors. In contrast, the tumor uptake of [^18F]/[^19F]-C-SNAT4 (ratio at 1:200) and [^18F]/[^19F]-C-SNAT4 (ratio at 1:80) in untreated tumor was 0.5±0.2% ID/cc and 0.3±0.2% ID/cc, respectively at 85 min after injection (FIG. 25A-25C), followed by a rapid signal decay back to baseline within a few minutes. There were no changes compared to the uptake of [^18F]-C-SNAT4 (0.4±0.1% ID/cc). […] The sample was centrifuged at 13,400 g for 10 min and […] of the resultant supernatant was diluted with […] of water and analyzed on HPLC. % intact tracer was calculated as %=(peak area for tracer/total peak area on the HPLC chromatogram)×100.

elimination from the blood ([1]; by 2 h after administration): nearly complete elimination
peak blood concentration ([1]; healthy nude mice, after 5 min): 15.21±2.66 % ID/g
blood life ([1]; healthy nude mice, i.v.): 0.4 ± 0.1 h
blood half-life ([1]; healthy nude mice, i.v., n=4): 21.6 ± 6.6 min
percentage of [18F]-C-SNAT4 remained [2]: 77.2%
SMILES: CCSSCC(NC(=O)C(CC(=O)O)NC(=O)C(NC(=O)C(CCC(=O)O)NC(=O)C(CC(=O)O)NC(C)=O)C(C)C)C(=O)NCC(=O)NC(Cc1cn(CCOCCOCCOCC[18F])nn1)C(=O)NCc1ccc(C(=O)NCCCOc2cnc(C#N)nc2)cc1 (centres unmarked) [[^18F]-C-SNAT4]
uptake of high dose-treated cells relative to control cells (H460 cells; H460, 10 min post incubation): 5.8 fold
uptake of low dose-treated cells relative to control cells (H460 cells; H460, 60 min post incubation): 2.4 fold
cell uptake (H460 cells; IR-treated (10 Gy, 24 h) H460, hot tracer only, 1 h): 3.9±0.4 % uptake/mg protein
cell uptake (H460 cells; cisplatin high dose (13.5 μM, 24 h) treated H460, 10 min post incubation): 2.3 % radioactivity/mg protein
cell uptake (H460 cells; cisplatin low dose (4.5 μM, 24 h) treated H460, 10 min): 0.7±0.1 % uptake/mg protein
cell uptake (H460 cells; cisplatin low dose (4.5 μM, 24 h) treated H460, 60 min): 1.45±0.11 % radioactivity/mg protein
cell uptake (H460 cells; control H460 cells of high dose experiment, 10 min post incubation): 0.4±0.1 % uptake/mg protein
cell uptake (H460 cells; non-treated H460, hot tracer only): 2.8±0.3 % uptake/mg protein
cell uptake (H460 cells; untreated H460, 10 min): 0.5±0.1 % radioactivity/mg protein
cell uptake (H460 cells; untreated H460, 60 min): 0.4 % uptake/mg protein
difference in uptake, drug-treated versus untreated (H1299 cells; H1299, high dose, 60 min): no difference
cell uptake (H1299 cells; cisplatin high dose (13.5 μM, 24 h) treated H1299, 30 min post incubation): 4.0±0.3 % radioactivity/mg protein
cell uptake (H1299 cells; cisplatin low dose (4.5 μM, 24 h) treated H1299, 60 min): 0.3±0.1 % uptake/mg protein
cell uptake (H1299 cells; control group H1299 (high dose experiment), 30 min post incubation): 2.5±0.6 % radioactivity/mg protein
cell uptake (H1299 cells; naïve H1299 (low dose experiment), 60 min): 0.2±0.1 % uptake/mg protein
